This is an account of results in ChEMBL document CHEMBL4732231, “Combretastatin A-4 sulfur-containing heterocyclic derivatives: Synthesis, antiproliferative activities and molecular docking studies” (Eur J Med Chem, 2021).

One test deals with MIA PaCa-2. The test is described as follows: Antiproliferative activity against human MIA PaCa-2 cells assessed as reduction in cell viability incubated for 72 hrs by MTT assay. The class given is functional, cell-based. To be noted: MIA PaCa-2, 72 h. In general terms: Tetrazolium dyes change colour on reduction, which living cells bring about.
In test [1] the test system is RL. The test is described as follows: Antiproliferative activity against human RL cells assessed as reduction in cell viability incubated for 72 hrs by MTT assay. The format is functional, cell-based.
Another test has as its target Tubulin. Nature of the test: Inhibition of tubulin polymerization in human HeLa cells assessed as dynamic tyrosinated microtubules content by incubated for 2 hrs by immunofluorescence staining based assay. The format is cell-based.
In the next test the test system is A2780. Nature of the test: Antiproliferative activity against human A2780 cells assessed as reduction in cell viability incubated for 72 hrs by MTT assay. The class given is functional, cell-based. To be noted: A2780, 72 h.
A further test has as its system MES-SA/Dx5. The test is described as follows: Antiproliferative activity against multidrug-resistant human MES-SA/Dx5 cells assessed as reduction in cell viability incubated for 72 hrs by prestoblue dye based assay. The settings on record: MES-SA/Dx5, 72 h. The class given is functional.
Test [2] addresses T1, Tubulin (Homo sapiens) (UniProt P68371+Q9H4B7+P0DPH7+P68366+Q13509+Q71U36+P04350+Q3ZCM7+P07437+P68363+Q9BQE3+Q6PEY2+Q13885+Q9BVA1+Q9BUF5). Nature of the test: Inhibition of tubulin polymerization in human HeLa cells assessed as dynamic tyrosinated microtubules content at 2 uM by incubated for 2 hrs by immunofluorescence staining based assay. The class given is cell-based.
Test [3] addresses T1, Tubulin (Homo sapiens). The test is described as follows: Inhibition of tubulin polymerization in human HeLa cells assessed as dynamic tyrosinated microtubules content at 1 uM by incubated for 2 hrs by immunofluorescence staining based assay. The format is cell-based.
The test system of test [4] is RL. Nature of the test: Induction of cell death in human RL cells assessed as cell gating level at 1 to 10 nM measured upto 48 hrs by PI staining based flow cytometry analysis (reference value: 80 to 85 %). The format is functional. To be noted: dose 1-10 nM, time hrs <=48. In general terms: In flow cytometry, cells or beads pass a laser one at a time.
Test [5] deals with RL. The test is described as follows: Induction of cell cycle arrest in human RL cells assessed as increase in accumulation in subG0/G1 phase at 10 nM incubated for 48 hrs by PI staining based flow cytometry analysis (reference value: 8 %). The format is functional.
Test [6] has as its system RL. Nature of the test: Induction of cell cycle arrest in human RL cells assessed as increase in accumulation in subG0/G1 phase at 1 nM incubated for 48 hrs by PI staining based flow cytometry analysis (reference value: 8 %). The format is functional.
The test system of test [7] is RL. Nature of the test: Induction of cell cycle arrest in human RL cells assessed as increase in accumulation in subG0/G1 phase at 10 nM incubated for 24 hrs by PI staining based flow cytometry analysis (reference value: 4.5 %). The class given is functional.
The target of test [8] is T1, Tubulin (Homo sapiens). Nature of the test: Inhibition of tubulin polymerization in human HeLa cells assessed as dynamic tyrosinated microtubules content at 14 uM by incubated for 2 hrs by immunofluorescence staining based assay. The class given is cell-based.
In test [9] the test system is RL. The test is described as follows: Induction of cell cycle arrest in human RL cells assessed as effect on cell cycle distribution at 1 nM incubated for 48 hrs by PI staining based flow cytometry analysis (reference value: 8 %). The class given is functional.
Test [10] relates to RL. The test is described as follows: Induction of cell cycle arrest in human RL cells assessed as increase in accumulation in G2/M phase at 10 nM incubated for 24 hrs by PI staining based flow cytometry analysis (reference value: 23.3 %). The format is functional.

The source made the active and inactive calls. The calls are words filed in the database; no cut-off is given here. Some results are limits rather than exact numbers.

As a reminder, the IC50 is the concentration that gives 50% inhibition. In general, EC50 refers to the concentration needed to bring the measured effect to its halfway point. As usually defined, the inhibition is how much of the control response was suppressed.

Regarding `COc1cc(/C=C\c2cc3cc(F)ccc3s2)cc(OC)c1OC`, the results for the IC50 in the test on MIA PaCa-2, in the test with RL [1] and in the test on A2780 were 200 nM, 38 nM and 200 nM, respectively. The concentration for a half-maximal effect (EC50) on Tubulin came to 523 nM.

As to `COc1ccc(/C=C\c2cc(OC)c(OC)c(OC)c2)s1`, the IC50 in the test on MES-SA/Dx5 was 75 nM.

`COc1ccc2sc(/C=C\c3cc(OC)c(OC)c(OC)c3)cc2c1`: the results for the inhibition on Tubulin (Homo sapiens) [2] and at Tubulin (Homo sapiens) [3] were 62% and 14%, respectively.

Take `COc1ccc(/C=C\c2cc(OC)c(OC)c(OC)c2)cc1O` [COMBRETASTATIN A4]: the Activity in the test with RL [4] is 45%; in the test on RL [5], 34.9%; in the test on RL [6] it was 30.1%; in the test with RL [7], 19.3%. Besides, the IC50 came to 2.1 nM with MIA PaCa-2, 3 nM in the test on MES-SA/Dx5, 1.4 nM with RL [1] and 2.5 nM in the test on A2780.

Take `COc1ccsc1/C=C\c1cc(OC)c(OC)c(OC)c1`: the IC50 with MIA PaCa-2, with RL [1] and with A2780 was more than 1000 nM in each case. Further, on Tubulin, the half-maximal effective concentration (EC50) was more than 10000 nM.

For `COc1cc(C(=O)C(=O)c2cc3ccccc3s2)cc(OC)c1OC`, the inhibition at Tubulin (Homo sapiens) [8] worked out at 35%.

In the case of `COc1cc(/C=C\c2csc3ccccc23)cc(OC)c1OC`, the IC50 in the test on MES-SA/Dx5 is 288 nM.

Take `C=C(c1cc(OC)c(OC)c(OC)c1)c1cc2ccccc2s1`: in the test on MES-SA/Dx5, the IC50 stood at 150 nM.

With `COc1cc(/C=C\c2cc3cc(O)ccc3s2)cc(OC)c1OC`, the EC50 at Tubulin worked out at 717 nM.

Consider `COc1cc(/C=C\c2cc3ccccc3s2)cc(OC)c1OC`, for which the IC50 in the test with MIA PaCa-2 was found to be 7.8 nM; in the test on MES-SA/Dx5, 19 nM; in the test on RL [1], 7.6 nM; with A2780, 7.9 nM.

For `COc1cc2c(c(OC)c1OC)-c1ccc(OC)c(=O)cc1[C@@H](NC(C)=O)CC2` [COLCHICINE], the IC50 turned out to be 6.1 nM with MIA PaCa-2, 757 nM in the test with MES-SA/Dx5, 4.4 nM with RL [1] and 14 nM with A2780.

As to `COc1cc(/C=C\c2sc3ccccc3c2C)cc(OC)c1OC`, the IC50 in the test with MIA PaCa-2 came out at 120 nM; in the test on RL [1], 61 nM; in the test on A2780 it was 360 nM. In addition, the EC50 on Tubulin was 555 nM.

With `COc1csc(/C=C\c2cc(OC)c(OC)c(OC)c2)c1`, the Activity in the test on RL [4] is 45%; with RL [5] it was 23.4%; with RL [10] it was 48.8%; with RL [7], 15.6%. Further, the outcome in the test with RL [9] was inactive. In addition, the IC50 in the test with MIA PaCa-2 worked out at 14 nM; with MES-SA/Dx5 it was 27 nM; with RL [1], 11 nM; in the test with A2780 it was 13 nM.
